Entries after “also recorded” stand apart in the source; their conditions may differ.
Assays:
[1] = test system: CD34+ umbilical cord blood HSPCs; experiment: UNC0642 treatment during T cell differentiation, flow cytometry; type: cell-based, human; conditions: continuous treatment 10, 50, 100, 500 nM; 28 days of differentiation; vs DMSO control
Source text: Error bars represent the standard deviation across n=3 independent differentiations per dose of UNC0642. *=p<0.05 compared to the DMSO control using a two-tailed Wilcoxon sum-rank test.
Error bars represent standard deviation. N=3 independent differentiation replicates per dose of UNC0642.
CD34+ umbilical cord blood cells (AllCells) were thawed from liquid nitrogen storage and T cell differentiation was immediately initiated with a StemSpan T cell Generation Kit (Stem Cell Technologies, 09940), as described above. Cells were treated with UNC0642 (Cayman Chemical, 14604) over the entire duration of the differentiation and fresh compound was supplemented every 3-4 days to the media. A range of doses were tested (10 nM, 50 nM, 100 nM, and 500 nM) alongside a 0.5% DMSO vehicle control with n=3 replicate differentiations per condition. Cells were collected after 28 days of differentiation to assess NK and T cell populations by flow cytometry.

[2] = test system: FKBP12^F36V tagged TRIM28; experiment: Western-blot for TRIM28 on dTAG knockin iPS clones; type: cell-based, human; conditions: 500 nM, 24 hours, four iPS clones, vs DMSO
Description: FIG. 35A-35F examines rapid and selective degradation of endogenous TRIM28 in human iPS cells. […] An mNeon-FKBP12^F36V open reading frame DNA sequence was knocked into the TRIM28 locus (SEQ ID NO: 32) to tag the N-terminus of TRIM28 and thus create an mNeon-FKBP12^F36V-TRIM28 fusion protein. The knockin was achieved through CRISPR/Cas9-mediated HDR (gRNA, SEQ ID: 31) where the knockin cassette was delivered to cells in an rAAV6 vector. FIG. 35B examines bulk knockin efficiency was assessed with flow cytometry for mNeon five days after simultaneous CRISPR/Cas9 RNP nucleofection and rAAV6 infection of iPS cells (MOI: 50,000 viral genomes/cells). […] The wild-type, unedited locus results in an amplicon of 1,204 bp and the knockin locus generates an amplicon of 2,371 bp. (*) denotes biallelic knockin clones. FIG. 35D analyzes microscopy for DAPI and mNeon on a biallelic knockin iPS clone to visualize nuclear localization of mNeon signal, consistent with the known nuclear localization of endogenous TRIM28 proteins. FIG. 35E examines titration of degrader molecules (dTAG-13 and dTAG^V-1) on a biallelic knockin iPS clone, assayed by flow cytometry for mNeon as a quantitative proxy for TRIM28 protein expression.

[3] = test system: CD34+ umbilical cord blood HSPCs; experiment: In vitro T cell differentiation (Notch-based, stroma-free) of CRISPR/Cas9 RNP-edited HSPCs, flow cytometry; set-up: species or system human; conditions: six weeks of in vitro differentiation, Cas9 RNP knockout of EHMT1, n=3; for CD56+CD3− natural killer (NK) cells (fractional abundance within CD45+DAPI− population): AAVS1-targeting gRNA control: 1.2±0.45%; for CD56−CD3+ T cells (fractional abundance within CD45+DAPI− population): AAVS1-targeting gRNA control: 38.7±12.5%
Description: Genetic knockouts of select genes were generated in primary hematopoietic stem and progenitor cells (HSPCs) via nucleofection of CRISPR/Cas9 ribonucleoproteins (RNPs). Two independent knockouts were generated for each gene using separate gRNAs and knockouts were replicated across two different donor pools of human umbilical cord blood. First, CD34+ cord blood cells (AllCells) were thawed via dropwise addition of RPMI 1640+10% FBS. Cells were centrifuged at 200 g for 8 minutes and subsequently washed with FACS buffer (PBS+2% FBS). Cells were cultured for 48 hours prior to nucleofection at a density of 250,000 cells/mL in SFEM II™ media (StemCell Technologies) supplemented with 100 ng/mL SCF, TPO, FLT3L, and IL-6 (Peprotech) within a 5% O2, 5% CO2, 37° C. incubator. Next, the top two protospacer sequences for each desired gene were selected from the Brunello genome-wide knockout library (Broad Institute) based on the Rule Set 2 score. A control gRNA targeting the AAVS1 locus was designed in Benchling™. All gRNA sequences were synthesized by IDT as an Alt-R CRISPR/Cas9 sgRNA. RNPs were complexed by incubating 105 pmol of Cas9 protein (IDT) with 125 pmol of sgRNA in a 5 uL total volume for 10 minutes at room temperature. CD34+ cord blood HSPCs were washed with FACS buffer and 125,000 cells were resuspended in 20 μL of P3 Primary Cell Nucleofection Solution (Lonza) per nucleofection. RNPs were nucleofected into HSPCs with 3.85 uM electroporation enhancer (IDT) using a 16-reaction nucleovette on a Lonza 4D-Nucleofector (program DZ-100). Cells were cultured for 36-48 hours at 5% O2, 5% CO2 in 96-well U-bottom plates (Corning) then subsequently harvested for genomic DNA extraction and initiation of in vitro differentiation assays.
Following 36-48 hours post-nucleofection of Cas9 RNPs, 5,000 cord blood HSPCs were differentiated to T cell lineages using the StemSpan™ T cell Generation Kit (Stem Cell Technologies) per the manufacturer's instructions with n=3 replicate differentiations per gRNA. Total viable cell counts were performed on Day 14, 28 and 42 of differentiation. T cell development was assessed by flow cytometry on days 14 and 42 of differentiation to assess lymphoid progenitors (CD45, CD5 and CD7) and mature T cells (CD45, CD4, CD8, CD3, CD56, CD5 and CD7), respectively. Cells were stained with propidium iodide as a viability marker and the following antibodies for flow cytometry: CD45 APC-Cy7 (557833, BD Biosciences), CD4 PE-Cy5 (IM2636U, Beckman Coulter Immunotech), CD8-BV421 (RPA-T8, BD Horizon), CD5-BV510 (UCHT2, BD Biosciences), CD3-PE-Cy7 (UCHT1, BD Pharmigen), CD7-PE (555361, BD Pharmigen), CD56 FITC (BD Pharmigen). […]

Row | Compound | proportion of CD56+CD3− NK cells and CD56−CD3+ T cells [1] | TRIM28 protein degradation [2] | CD56+CD3− natural killer (NK) cells (fractional abundance within CD45+DAPI− population) [3] [%] | CD56−CD3+ T cells (fractional abundance within CD45+DAPI− population) [3] [%]
1 | COc1cc2c(NC3CCN(C(C)C)CC3)nc(N3CCC(F)(F)CC3)nc2cc1OCCCN1CCCC1 [UNC0642] | dose-dependent acquisition of NK cells; also recorded: dose-dependent phenocopy of the EHMT1 CRISPR/Cas9 knockout | – | – | –
2 | CC[C@H](C(=O)N1CCCC[C@H]1C(=O)O[C@H](CCc1ccc(OC)c(OC)c1)c1ccccc1OCC(=O)NCCCCCCC(=O)N[C@H](C(=O)N1C[C@H](O)C[C@H]1C(=O)N[C@@H](C)c1ccc(-c2scnc2C)cc1)C(C)(C)C)c1cc(OC)c(OC)c(OC)c1 [dTAG^V-1] | – | near-complete degradation | – | –
3 | EHMT1 gRNA01: SEQ ID NO: 5, GGGCCGGTGCACAAACAGCG; Alt-R CRISPR/Cas9 sgRNA delivered as Cas9 RNP (guide GGGCCGGUGCACAAACAGCG; IDT Alt-R synthetic sgRNA, modifications not given here) | – | – | 35.4±5.7 | 13.9±1.8
4 | EHMT1 gRNA02: SEQ ID NO: 6, TTCGGCTGCTTCCATCAACG; Alt-R CRISPR/Cas9 sgRNA delivered as Cas9 RNP (guide UUCGGCUGCUUCCAUCAACG; IDT Alt-R synthetic sgRNA, modifications not given here) | – | – | 58.7±4.9 | 6.6±0.69
